The kinase profiling compilation of Christmann-Franck et al. (2016)

Each molecule was assayed against DYRK1A (human) (UniProt Q13627) (assay: radiometric filter-binding kinase assay, Kinase HotSpot). Conditions: compound 0.5 µM; ATP 10 µM.
`O=C(O)c1ccc2c3c1cccc3c(=O)n1c3ccccc3nc21` showed a residual activity of 55.5%.
For `Cc1cc(Nc2nc(-c3ccccc3)nc3ccccc23)n[nH]1`, the residual activity was 104%.
With `N#Cc1c(NC(=O)c2cccc3ccccc23)sc2c1CCCC2` the residual activity was 96.7%.
In the case of `N/C(=N\N=C/c1ccc(-c2cccc([N+](=O)[O-])c2)o1)N[N+](=O)[O-]`, the residual activity is reported as 95.8%.

The molecules below were run against DYRK3 (human) (UniProt O43781) in the same assay as above. Conditions: compound 0.5 µM; ATP 10 µM.
`O=C(O)c1ccc2c3c1cccc3c(=O)n1c3ccccc3nc21` was tested, and the residual activity was 92.3%.
Molecule `Cc1cc(Nc2nc(-c3ccccc3)nc3ccccc23)n[nH]1` has a residual activity of 81.9%.
Molecule `N#Cc1c(NC(=O)c2cccc3ccccc23)sc2c1CCCC2` has a residual activity of 128%.
With `N/C(=N\N=C/c1ccc(-c2cccc([N+](=O)[O-])c2)o1)N[N+](=O)[O-]` the residual activity was 102%.

What follows are molecules tested against CDC42BPA (human) (UniProt Q5VT25) in the same assay as above. Conditions: compound 0.5 µM; ATP 10 µM.
In the case of `O=C(O)c1ccc2c3c1cccc3c(=O)n1c3ccccc3nc21`, the residual activity is reported as 96.1%.
For `Cc1cc(Nc2nc(-c3ccccc3)nc3ccccc23)n[nH]1`, the residual activity was 108%.
In the case of `N#Cc1c(NC(=O)c2cccc3ccccc23)sc2c1CCCC2`, the residual activity is reported as 103%.
For `N/C(=N\N=C/c1ccc(-c2cccc([N+](=O)[O-])c2)o1)N[N+](=O)[O-]`, the residual activity was 87.3%.

The molecules below were run against MAPK11 (human) (UniProt Q15759) in the same assay as above. Conditions: compound 0.5 µM; ATP 10 µM.
MAPK11 (human), sequence (Q15759 whole entry, looked up): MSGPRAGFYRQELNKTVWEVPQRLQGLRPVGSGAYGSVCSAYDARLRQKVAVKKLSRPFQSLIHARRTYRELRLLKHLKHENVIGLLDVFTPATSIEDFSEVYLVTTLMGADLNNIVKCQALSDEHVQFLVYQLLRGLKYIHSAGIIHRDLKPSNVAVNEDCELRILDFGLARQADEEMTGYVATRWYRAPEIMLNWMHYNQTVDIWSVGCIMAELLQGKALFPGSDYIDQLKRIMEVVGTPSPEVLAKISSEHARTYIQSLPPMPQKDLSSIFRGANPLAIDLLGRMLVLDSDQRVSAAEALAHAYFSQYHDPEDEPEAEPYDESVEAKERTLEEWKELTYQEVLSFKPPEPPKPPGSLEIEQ
`O=C(O)c1ccc2c3c1cccc3c(=O)n1c3ccccc3nc21` showed a residual activity of 105%.
`Cc1cc(Nc2nc(-c3ccccc3)nc3ccccc23)n[nH]1` was tested, and the residual activity was 96.8%.
In the case of `N#Cc1c(NC(=O)c2cccc3ccccc23)sc2c1CCCC2`, the residual activity is reported as 104%.
Work on `N/C(=N\N=C/c1ccc(-c2cccc([N+](=O)[O-])c2)o1)N[N+](=O)[O-]` yielded a residual activity of 96.6%.

The molecules below were run against MARK4 (human) (UniProt Q96L34) in the same assay as above. Conditions: compound 0.5 µM; ATP 10 µM.
`O=C(O)c1ccc2c3c1cccc3c(=O)n1c3ccccc3nc21` was tested, and the residual activity was 88.4%.
`Cc1cc(Nc2nc(-c3ccccc3)nc3ccccc23)n[nH]1` gave a residual activity of 83.5%.
With `N#Cc1c(NC(=O)c2cccc3ccccc23)sc2c1CCCC2` the residual activity was 101%.
`N/C(=N\N=C/c1ccc(-c2cccc([N+](=O)[O-])c2)o1)N[N+](=O)[O-]` showed a residual activity of 87.6%.

The molecules below were run against DAPK3 (human) (UniProt O43293) in the same assay as above. Conditions: compound 0.5 µM; ATP 10 µM.
DAPK3 (human), sequence (O43293 whole entry, looked up): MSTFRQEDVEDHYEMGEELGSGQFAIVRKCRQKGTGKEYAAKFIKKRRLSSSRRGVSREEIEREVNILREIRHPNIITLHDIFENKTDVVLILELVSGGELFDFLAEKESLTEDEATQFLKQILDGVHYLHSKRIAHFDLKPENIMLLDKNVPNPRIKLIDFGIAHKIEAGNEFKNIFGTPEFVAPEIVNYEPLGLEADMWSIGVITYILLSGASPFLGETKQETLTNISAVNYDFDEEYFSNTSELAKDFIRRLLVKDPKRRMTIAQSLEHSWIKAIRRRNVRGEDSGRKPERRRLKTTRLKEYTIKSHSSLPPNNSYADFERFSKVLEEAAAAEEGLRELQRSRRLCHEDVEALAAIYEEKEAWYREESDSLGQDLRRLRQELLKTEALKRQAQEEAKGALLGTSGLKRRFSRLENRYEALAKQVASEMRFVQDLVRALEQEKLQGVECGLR
With `O=C(O)c1ccc2c3c1cccc3c(=O)n1c3ccccc3nc21` the residual activity was 51.3%.
`Cc1cc(Nc2nc(-c3ccccc3)nc3ccccc23)n[nH]1` gave a residual activity of 57.5%.
`N#Cc1c(NC(=O)c2cccc3ccccc23)sc2c1CCCC2` gave a residual activity of 110%.
With `N/C(=N\N=C/c1ccc(-c2cccc([N+](=O)[O-])c2)o1)N[N+](=O)[O-]` the residual activity was 103%.

Each molecule was assayed against CSNK1E (human) (UniProt P49674) in the same assay as above. Conditions: compound 0.5 µM; ATP 10 µM.
`O=C(O)c1ccc2c3c1cccc3c(=O)n1c3ccccc3nc21` gave a residual activity of 96%.
Molecule `Cc1cc(Nc2nc(-c3ccccc3)nc3ccccc23)n[nH]1` has a residual activity of 97.4%.
For `N#Cc1c(NC(=O)c2cccc3ccccc23)sc2c1CCCC2`, the residual activity was 102%.
For `N/C(=N\N=C/c1ccc(-c2cccc([N+](=O)[O-])c2)o1)N[N+](=O)[O-]`, the residual activity was 91%.

These molecules were tested against RPS6KA6 KD1 KD2 (human) (UniProt Q9UK32) in the same assay as above. Conditions: compound 0.5 µM; ATP 10 µM.
RPS6KA6 KD1 KD2 (human), sequence (Q9UK32 whole entry, looked up): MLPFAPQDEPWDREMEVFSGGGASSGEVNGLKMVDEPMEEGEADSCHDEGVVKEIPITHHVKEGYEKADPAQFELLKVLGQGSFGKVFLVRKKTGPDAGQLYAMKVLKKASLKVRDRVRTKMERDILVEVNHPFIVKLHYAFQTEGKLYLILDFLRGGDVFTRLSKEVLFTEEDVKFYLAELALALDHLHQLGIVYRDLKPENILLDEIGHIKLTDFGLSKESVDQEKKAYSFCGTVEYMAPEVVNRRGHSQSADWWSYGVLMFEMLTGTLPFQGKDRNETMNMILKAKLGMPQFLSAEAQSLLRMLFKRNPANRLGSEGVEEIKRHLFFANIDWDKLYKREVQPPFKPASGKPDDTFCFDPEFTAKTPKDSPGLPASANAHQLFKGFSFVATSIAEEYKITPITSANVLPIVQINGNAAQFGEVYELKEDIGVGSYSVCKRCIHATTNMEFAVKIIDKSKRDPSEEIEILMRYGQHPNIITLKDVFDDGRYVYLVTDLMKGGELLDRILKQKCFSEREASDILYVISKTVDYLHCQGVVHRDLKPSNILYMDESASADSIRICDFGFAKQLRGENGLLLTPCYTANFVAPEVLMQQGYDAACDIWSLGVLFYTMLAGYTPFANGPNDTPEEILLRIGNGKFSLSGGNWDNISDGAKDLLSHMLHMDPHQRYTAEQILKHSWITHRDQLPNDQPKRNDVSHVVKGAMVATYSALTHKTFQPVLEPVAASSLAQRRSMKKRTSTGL
`O=C(O)c1ccc2c3c1cccc3c(=O)n1c3ccccc3nc21` was tested, and the residual activity was 101%.
Molecule `Cc1cc(Nc2nc(-c3ccccc3)nc3ccccc23)n[nH]1` has a residual activity of 56.3%.
Work on `N#Cc1c(NC(=O)c2cccc3ccccc23)sc2c1CCCC2` yielded a residual activity of 101%.
`N/C(=N\N=C/c1ccc(-c2cccc([N+](=O)[O-])c2)o1)N[N+](=O)[O-]` showed a residual activity of 96.9%.

These molecules were tested against EPHA5 (human) (UniProt P54756) in the same assay as above. Conditions: compound 0.5 µM; ATP 10 µM.
EPHA5 (human), sequence (P54756 whole entry, looked up): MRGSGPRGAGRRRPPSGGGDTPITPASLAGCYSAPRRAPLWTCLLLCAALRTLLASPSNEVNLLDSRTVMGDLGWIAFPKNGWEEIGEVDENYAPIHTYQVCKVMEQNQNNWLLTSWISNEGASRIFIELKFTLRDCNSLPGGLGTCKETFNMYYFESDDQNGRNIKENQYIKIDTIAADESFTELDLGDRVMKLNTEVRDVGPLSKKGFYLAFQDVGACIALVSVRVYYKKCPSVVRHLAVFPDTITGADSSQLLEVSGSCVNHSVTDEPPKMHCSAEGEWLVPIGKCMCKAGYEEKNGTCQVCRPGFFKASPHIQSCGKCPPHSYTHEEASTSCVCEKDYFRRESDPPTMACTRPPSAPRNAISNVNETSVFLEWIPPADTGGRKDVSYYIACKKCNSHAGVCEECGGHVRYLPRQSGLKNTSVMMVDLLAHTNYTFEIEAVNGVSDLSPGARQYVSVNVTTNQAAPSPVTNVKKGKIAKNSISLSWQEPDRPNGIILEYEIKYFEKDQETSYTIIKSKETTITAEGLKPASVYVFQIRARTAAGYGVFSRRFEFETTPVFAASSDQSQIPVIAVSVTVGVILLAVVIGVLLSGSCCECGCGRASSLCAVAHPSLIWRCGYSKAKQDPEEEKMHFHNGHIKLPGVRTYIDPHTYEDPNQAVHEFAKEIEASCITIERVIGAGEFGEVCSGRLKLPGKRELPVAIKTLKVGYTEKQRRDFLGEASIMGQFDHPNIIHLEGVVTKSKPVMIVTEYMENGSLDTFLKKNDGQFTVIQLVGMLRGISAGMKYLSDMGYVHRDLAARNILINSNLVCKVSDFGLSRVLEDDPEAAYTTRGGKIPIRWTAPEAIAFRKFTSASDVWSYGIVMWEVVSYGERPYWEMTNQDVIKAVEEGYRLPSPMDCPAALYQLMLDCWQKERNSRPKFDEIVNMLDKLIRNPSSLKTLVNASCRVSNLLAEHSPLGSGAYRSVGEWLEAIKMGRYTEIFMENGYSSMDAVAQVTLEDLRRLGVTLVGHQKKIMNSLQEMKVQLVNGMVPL
For `O=C(O)c1ccc2c3c1cccc3c(=O)n1c3ccccc3nc21`, the residual activity was 94.2%.
Work on `Cc1cc(Nc2nc(-c3ccccc3)nc3ccccc23)n[nH]1` yielded a residual activity of 90.6%.
`N#Cc1c(NC(=O)c2cccc3ccccc23)sc2c1CCCC2` showed a residual activity of 99.6%.
With `N/C(=N\N=C/c1ccc(-c2cccc([N+](=O)[O-])c2)o1)N[N+](=O)[O-]` the residual activity was 100%.

These molecules were tested against ADRBK2 (human) (UniProt P35626) in the same assay as above. Conditions: compound 0.5 µM; ATP 10 µM.
`O=C(O)c1ccc2c3c1cccc3c(=O)n1c3ccccc3nc21` gave a residual activity of 103%.
Work on `Cc1cc(Nc2nc(-c3ccccc3)nc3ccccc23)n[nH]1` yielded a residual activity of 106%.
For `N#Cc1c(NC(=O)c2cccc3ccccc23)sc2c1CCCC2`, the residual activity was 106%.
Molecule `N/C(=N\N=C/c1ccc(-c2cccc([N+](=O)[O-])c2)o1)N[N+](=O)[O-]` has a residual activity of 102%.

The molecules below were run against CDK4 CCND3 (human) (UniProt P30281+P11802) in the same assay as above. Conditions: compound 0.5 µM; ATP 10 µM.
CDK4 CCND3 (human), sequence (P11802 whole entry, looked up): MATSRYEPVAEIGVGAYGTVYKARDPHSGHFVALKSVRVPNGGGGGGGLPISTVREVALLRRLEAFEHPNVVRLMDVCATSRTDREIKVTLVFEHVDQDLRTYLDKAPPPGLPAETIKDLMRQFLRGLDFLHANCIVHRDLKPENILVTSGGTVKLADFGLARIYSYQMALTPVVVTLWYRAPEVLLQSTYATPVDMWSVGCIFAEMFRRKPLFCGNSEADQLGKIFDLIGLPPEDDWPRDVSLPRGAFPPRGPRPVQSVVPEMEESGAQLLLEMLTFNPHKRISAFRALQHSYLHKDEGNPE
CDK4 CCND3 (human), sequence (P30281 whole entry, looked up): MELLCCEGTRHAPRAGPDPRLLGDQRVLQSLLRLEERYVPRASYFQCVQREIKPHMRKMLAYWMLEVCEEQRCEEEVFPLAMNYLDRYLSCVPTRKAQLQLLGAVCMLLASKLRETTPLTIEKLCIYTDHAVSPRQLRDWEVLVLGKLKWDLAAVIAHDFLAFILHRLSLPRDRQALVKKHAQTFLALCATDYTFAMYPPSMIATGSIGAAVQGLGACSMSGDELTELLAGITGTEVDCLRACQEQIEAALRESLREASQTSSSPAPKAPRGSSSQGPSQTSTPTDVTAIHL
`O=C(O)c1ccc2c3c1cccc3c(=O)n1c3ccccc3nc21` gave a residual activity of 102%.
In the case of `Cc1cc(Nc2nc(-c3ccccc3)nc3ccccc23)n[nH]1`, the residual activity is reported as 94.4%.
Molecule `N#Cc1c(NC(=O)c2cccc3ccccc23)sc2c1CCCC2` has a residual activity of 97.1%.
`N/C(=N\N=C/c1ccc(-c2cccc([N+](=O)[O-])c2)o1)N[N+](=O)[O-]` showed a residual activity of 103%.

What follows are molecules tested against CAMK1D (human) (UniProt Q8IU85) in the same assay as above. Conditions: compound 0.5 µM; ATP 10 µM.
CAMK1D (human), sequence (Q8IU85 whole entry, looked up): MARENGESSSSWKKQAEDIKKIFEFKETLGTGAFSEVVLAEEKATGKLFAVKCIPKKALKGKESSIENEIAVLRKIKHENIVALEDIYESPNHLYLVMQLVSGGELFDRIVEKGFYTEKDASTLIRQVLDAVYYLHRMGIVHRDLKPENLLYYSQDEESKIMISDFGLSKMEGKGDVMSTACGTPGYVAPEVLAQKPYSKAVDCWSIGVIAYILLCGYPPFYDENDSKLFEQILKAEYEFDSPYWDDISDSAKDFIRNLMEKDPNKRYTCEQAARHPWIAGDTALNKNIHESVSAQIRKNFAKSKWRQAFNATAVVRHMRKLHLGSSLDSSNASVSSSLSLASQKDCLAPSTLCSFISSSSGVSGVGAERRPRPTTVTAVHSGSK
`O=C(O)c1ccc2c3c1cccc3c(=O)n1c3ccccc3nc21` gave a residual activity of 100%.
In the case of `Cc1cc(Nc2nc(-c3ccccc3)nc3ccccc23)n[nH]1`, the residual activity is reported as 85.4%.
`N#Cc1c(NC(=O)c2cccc3ccccc23)sc2c1CCCC2` gave a residual activity of 120%.
`N/C(=N\N=C/c1ccc(-c2cccc([N+](=O)[O-])c2)o1)N[N+](=O)[O-]` gave a residual activity of 96.4%.

Each molecule was assayed against GRK6 (human) (UniProt P43250) in the same assay as above. Conditions: compound 0.5 µM; ATP 10 µM.
GRK6 (human), sequence (P43250 whole entry, looked up): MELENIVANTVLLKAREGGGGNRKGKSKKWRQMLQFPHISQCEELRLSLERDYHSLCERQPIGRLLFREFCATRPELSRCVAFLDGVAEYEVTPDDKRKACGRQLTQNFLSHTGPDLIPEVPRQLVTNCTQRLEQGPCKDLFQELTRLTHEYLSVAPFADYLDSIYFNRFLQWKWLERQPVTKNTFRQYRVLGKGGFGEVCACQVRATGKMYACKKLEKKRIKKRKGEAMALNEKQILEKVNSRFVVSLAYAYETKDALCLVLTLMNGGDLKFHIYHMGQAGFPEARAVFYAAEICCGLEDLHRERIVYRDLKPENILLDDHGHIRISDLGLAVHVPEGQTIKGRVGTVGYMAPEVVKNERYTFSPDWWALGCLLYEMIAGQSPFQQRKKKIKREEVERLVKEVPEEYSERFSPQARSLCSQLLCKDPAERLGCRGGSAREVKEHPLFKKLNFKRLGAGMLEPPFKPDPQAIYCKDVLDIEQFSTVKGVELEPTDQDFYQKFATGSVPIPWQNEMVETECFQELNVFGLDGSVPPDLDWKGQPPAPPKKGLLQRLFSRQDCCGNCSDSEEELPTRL
`O=C(O)c1ccc2c3c1cccc3c(=O)n1c3ccccc3nc21` was tested, and the residual activity was 91.4%.
With `Cc1cc(Nc2nc(-c3ccccc3)nc3ccccc23)n[nH]1` the residual activity was 75.8%.
Work on `N#Cc1c(NC(=O)c2cccc3ccccc23)sc2c1CCCC2` yielded a residual activity of 108%.
In the case of `N/C(=N\N=C/c1ccc(-c2cccc([N+](=O)[O-])c2)o1)N[N+](=O)[O-]`, the residual activity is reported as 98.3%.

These molecules were tested against EPHA8 (human) (UniProt P29322) in the same assay as above. Conditions: compound 0.5 µM; ATP 10 µM.
`O=C(O)c1ccc2c3c1cccc3c(=O)n1c3ccccc3nc21` gave a residual activity of 89.4%.
Work on `Cc1cc(Nc2nc(-c3ccccc3)nc3ccccc23)n[nH]1` yielded a residual activity of 98.2%.
For `N#Cc1c(NC(=O)c2cccc3ccccc23)sc2c1CCCC2`, the residual activity was 104%.
Work on `N/C(=N\N=C/c1ccc(-c2cccc([N+](=O)[O-])c2)o1)N[N+](=O)[O-]` yielded a residual activity of 102%.

What follows are molecules tested against PRKD3 (human) (UniProt O94806) in the same assay as above. Conditions: compound 0.5 µM; ATP 10 µM.
`O=C(O)c1ccc2c3c1cccc3c(=O)n1c3ccccc3nc21` was tested, and the residual activity was 82.2%.
With `Cc1cc(Nc2nc(-c3ccccc3)nc3ccccc23)n[nH]1` the residual activity was 93.9%.
`N#Cc1c(NC(=O)c2cccc3ccccc23)sc2c1CCCC2` gave a residual activity of 97.7%.
For `N/C(=N\N=C/c1ccc(-c2cccc([N+](=O)[O-])c2)o1)N[N+](=O)[O-]`, the residual activity was 93.9%.

What follows are molecules tested against CDK7 CCNH MNAT1 (human) (UniProt P50613+P51948+P51946) in the same assay as above. Conditions: compound 0.5 µM; ATP 10 µM.
Molecule `O=C(O)c1ccc2c3c1cccc3c(=O)n1c3ccccc3nc21` has a residual activity of 92.1%.
For `Cc1cc(Nc2nc(-c3ccccc3)nc3ccccc23)n[nH]1`, the residual activity was 73.3%.
`N#Cc1c(NC(=O)c2cccc3ccccc23)sc2c1CCCC2` gave a residual activity of 101%.
With `N/C(=N\N=C/c1ccc(-c2cccc([N+](=O)[O-])c2)o1)N[N+](=O)[O-]` the residual activity was 100%.

The molecules below were run against TEC (human) (UniProt P42680) in the same assay as above. Conditions: compound 0.5 µM; ATP 10 µM.
Work on `O=C(O)c1ccc2c3c1cccc3c(=O)n1c3ccccc3nc21` yielded a residual activity of 123%.
With `Cc1cc(Nc2nc(-c3ccccc3)nc3ccccc23)n[nH]1` the residual activity was 106%.
With `N#Cc1c(NC(=O)c2cccc3ccccc23)sc2c1CCCC2` the residual activity was 111%.
`N/C(=N\N=C/c1ccc(-c2cccc([N+](=O)[O-])c2)o1)N[N+](=O)[O-]` showed a residual activity of 147%.

These molecules were tested against STK16 (human) (UniProt O75716) in the same assay as above. Conditions: compound 0.5 µM; ATP 10 µM.
STK16 (human), sequence (O75716 whole entry, looked up): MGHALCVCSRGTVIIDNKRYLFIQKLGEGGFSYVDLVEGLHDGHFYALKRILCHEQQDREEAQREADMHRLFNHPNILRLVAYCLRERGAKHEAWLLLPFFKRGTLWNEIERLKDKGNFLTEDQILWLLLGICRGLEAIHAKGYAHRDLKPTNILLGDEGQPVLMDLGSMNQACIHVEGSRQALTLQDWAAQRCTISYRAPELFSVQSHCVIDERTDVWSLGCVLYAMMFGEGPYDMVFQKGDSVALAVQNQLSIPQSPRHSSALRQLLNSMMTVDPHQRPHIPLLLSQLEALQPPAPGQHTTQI
Molecule `O=C(O)c1ccc2c3c1cccc3c(=O)n1c3ccccc3nc21` has a residual activity of 106%.
Molecule `Cc1cc(Nc2nc(-c3ccccc3)nc3ccccc23)n[nH]1` has a residual activity of 24.7%.
With `N#Cc1c(NC(=O)c2cccc3ccccc23)sc2c1CCCC2` the residual activity was 98.5%.
`N/C(=N\N=C/c1ccc(-c2cccc([N+](=O)[O-])c2)o1)N[N+](=O)[O-]` was tested, and the residual activity was 105%.

What follows are molecules tested against SGK3 (human) (UniProt Q96BR1) in the same assay as above. Conditions: compound 0.5 µM; ATP 10 µM.
SGK3 (human), sequence (Q96BR1 whole entry, looked up): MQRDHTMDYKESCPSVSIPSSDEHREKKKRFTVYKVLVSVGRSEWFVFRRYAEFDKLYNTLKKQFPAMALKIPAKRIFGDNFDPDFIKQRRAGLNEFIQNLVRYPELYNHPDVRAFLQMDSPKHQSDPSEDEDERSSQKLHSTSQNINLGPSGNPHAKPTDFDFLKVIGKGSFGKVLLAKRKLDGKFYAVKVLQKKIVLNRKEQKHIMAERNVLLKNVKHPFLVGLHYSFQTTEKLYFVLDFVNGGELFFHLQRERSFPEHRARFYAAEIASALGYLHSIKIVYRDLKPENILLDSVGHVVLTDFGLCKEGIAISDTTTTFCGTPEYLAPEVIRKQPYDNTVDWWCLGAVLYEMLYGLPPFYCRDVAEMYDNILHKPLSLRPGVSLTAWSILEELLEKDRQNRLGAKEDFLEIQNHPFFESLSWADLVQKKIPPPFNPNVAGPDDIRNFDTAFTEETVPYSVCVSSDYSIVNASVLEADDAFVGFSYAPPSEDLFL
`O=C(O)c1ccc2c3c1cccc3c(=O)n1c3ccccc3nc21` was tested, and the residual activity was 103%.
`Cc1cc(Nc2nc(-c3ccccc3)nc3ccccc23)n[nH]1` was tested, and the residual activity was 104%.
Molecule `N#Cc1c(NC(=O)c2cccc3ccccc23)sc2c1CCCC2` has a residual activity of 107%.
With `N/C(=N\N=C/c1ccc(-c2cccc([N+](=O)[O-])c2)o1)N[N+](=O)[O-]` the residual activity was 107%.

Each molecule was assayed against NTRK1 (human) (UniProt P04629) in the same assay as above. Conditions: compound 0.5 µM; ATP 10 µM.
In the case of `O=C(O)c1ccc2c3c1cccc3c(=O)n1c3ccccc3nc21`, the residual activity is reported as 105%.
With `Cc1cc(Nc2nc(-c3ccccc3)nc3ccccc23)n[nH]1` the residual activity was 14.6%.
`N#Cc1c(NC(=O)c2cccc3ccccc23)sc2c1CCCC2` was tested, and the residual activity was 105%.
`N/C(=N\N=C/c1ccc(-c2cccc([N+](=O)[O-])c2)o1)N[N+](=O)[O-]` showed a residual activity of 96%.

Each molecule was assayed against WNK3 (human) (UniProt Q9BYP7) in the same assay as above. Conditions: compound 0.5 µM; ATP 10 µM.
`O=C(O)c1ccc2c3c1cccc3c(=O)n1c3ccccc3nc21` gave a residual activity of 95.8%.
`Cc1cc(Nc2nc(-c3ccccc3)nc3ccccc23)n[nH]1` gave a residual activity of 74.9%.
Molecule `N#Cc1c(NC(=O)c2cccc3ccccc23)sc2c1CCCC2` has a residual activity of 99.2%.
